Consider nine compounds from PMC2963310 (Science (New York, N.Y.), 2009).

Test [1] addresses T1, LGC-40 (Caenorhabditis elegans, UniProt Q22741).
T1 sequence (Q22741 23-494): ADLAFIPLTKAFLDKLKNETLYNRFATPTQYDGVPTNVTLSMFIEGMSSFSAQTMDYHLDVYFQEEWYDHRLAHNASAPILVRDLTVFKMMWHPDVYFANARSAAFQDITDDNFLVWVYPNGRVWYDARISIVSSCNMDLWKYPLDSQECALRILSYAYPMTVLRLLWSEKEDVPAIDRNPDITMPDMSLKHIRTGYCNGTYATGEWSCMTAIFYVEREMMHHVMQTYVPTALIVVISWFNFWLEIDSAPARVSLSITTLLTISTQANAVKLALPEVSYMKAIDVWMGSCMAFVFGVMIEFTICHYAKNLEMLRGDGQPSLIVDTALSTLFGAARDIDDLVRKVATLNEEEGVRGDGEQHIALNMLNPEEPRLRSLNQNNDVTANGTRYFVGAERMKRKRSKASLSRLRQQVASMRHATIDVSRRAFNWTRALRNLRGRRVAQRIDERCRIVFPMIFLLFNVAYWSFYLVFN
Put plainly: Inhibition of choline-evoked LGC-40 currents in Xenopus oocytes. Type of test: cell-based.

The target in test [2] is T1, LGC-40. Type of test: cell-based. To be noted: for estimated Hill coefficient, LGC-40: dose-response data fitted to the Hill equation.
Test [3] concerns the target T2, LGC-53 (Caenorhabditis elegans, UniProt H2KYN9). In words: cell-based.
Test [4] addresses T2, LGC-53.
Test [5] has as its target T2, LGC-53. Put plainly: Inhibition of dopamine-evoked LGC-53 currents in Xenopus oocytes. The format is cell-based.
Another test has as its target LGC-55 (Caenorhabditis elegans, UniProt G5EEC1). Type of test: cell-based.
[6] abbreviates: dose-response data fitted to the Hill equation.
The mark [7] stands for this setting: panel: serotonin, dopamine, octopamine, tyramine, histamine.

For orientation: IC50 means the concentration that inhibits the measured activity by half. High values mean a need for much substance, low ones inhibition by little substance. `C[N+]1(C)CCOC(O)(c2ccc(-c3ccc(C4(O)C[N+](C)(C)CCO4)cc3)cc2)C1` (stereo not shown) [Hemicholinium-3, hemicholinium-3] had an IC50 against LGC-40 [1] of 2 µM. In general, EC50 refers to the concentration giving half of the maximal effect. The low end stands for higher potency in that assay, the high end for lower potency in that assay. In the case of `CC(=O)OCC[N+](C)(C)C` [acetylcholine], on LGC-40 [2], a half-maximal effect (EC50) was put at 87 µM and the “estimated Hill coefficient, LGC-40” value is listed as 1.5. Consider `CN1[C@@H]2CC[C@H]1C[C@@H](OC(=O)C(CO)c1ccccc1)C2` (stereo partly shown) [atropine], for which, at LGC-40 [1] (currents evoked by 2 μM choline), the “sensitivity of LGC-40 currents to antagonist (in words)” value is “relatively insensitive”. For the compound `C[N+](C)(C)CCO` [choline], at LGC-40 [2], the midpoint of the response, the EC50, lay at 3.4 µM and the “estimated Hill coefficient, LGC-40” value is on record as 1.9. In turn, `COc1cc2c3cc1Oc1cc(ccc1O)C[C@@H]1c4c(cc(OC)c(O)c4Oc4ccc(cc4)C[C@@H]3N(C)CC2)CC[N+]1(C)C` [d-tubocurarine] showed an IC50 against LGC-40 [1] of 8.3 µM. `NCCc1ccc(O)c(O)c1` [dopamine] displayed an EC50 on LGC-53 [3] of 4.4 µM. Also, the “estimated Hill coefficient, LGC-53” value at LGC-53 [4] (setting [6]) is 1.9. Further, the “efficacy of activation of LGC-53 among the biogenic amines tested (in words)” value on LGC-53 [4] (setting [7]) is on record as “highest efficacy”. Turning to `NCCc1c[nH]c2ccc(O)cc12` [serotonin], on LGC-40 [2], the EC50 was 905 µM and the “estimated Hill coefficient, LGC-40” value is 2.7. Consider `O=C(CCCN1CCC2(CC1)C(=O)NCN2c1ccccc1)c1ccc(F)cc1` [spiperone], for which half-maximal inhibition against LGC-53 [5] (IC50) required 38 µM. For the compound `NCCc1ccc(O)cc1` [tyramine], on LGC-55, a half-maximal effect (EC50) was put at 6 µM. Moreover, the “estimated Hill coefficient, LGC-55” value on LGC-55 (setting [6]) is listed as 1.8. The “efficacy of activation of LGC-55 among the biogenic amines tested (in words)” value at LGC-55 (setting [7]) is “highest efficacy”.
